Measured values as given in US12139815B2, “Methods for rapid detection of immunogenic epitopes in biothreat agents and emerging pathogens for peptide vaccines and therapeutics” (priority 2021, dated 2024).

Tested on: antibodies from sera of mice immunized with Ft-ΔclpB
Assay type: binding, mouse

DNTTIIDGAGEK [SEQ ID NO: 7]
enrichment in Experiment samples relative to Control samples (in words): enriched

EGVITVEEGK (listed as Francisella tularensis) [SEQ ID NO: 8]
enrichment in Experiment samples relative to Control samples (in words): enriched
